The source of these data is article PMC6812009, “Covalent Aurora A regulation by the metabolic integrator coenzyme A” (Redox Biology, 2019).

Holding throughout (test): Kinase profiling screen (radioactive filter-binding assay)
Common to all, as to format: biochemical

For test [1], the target named is T1, BRSK2 (Homo sapiens, UniProt Q8IWQ3).
T1 sequence (Q8IWQ3 1-736): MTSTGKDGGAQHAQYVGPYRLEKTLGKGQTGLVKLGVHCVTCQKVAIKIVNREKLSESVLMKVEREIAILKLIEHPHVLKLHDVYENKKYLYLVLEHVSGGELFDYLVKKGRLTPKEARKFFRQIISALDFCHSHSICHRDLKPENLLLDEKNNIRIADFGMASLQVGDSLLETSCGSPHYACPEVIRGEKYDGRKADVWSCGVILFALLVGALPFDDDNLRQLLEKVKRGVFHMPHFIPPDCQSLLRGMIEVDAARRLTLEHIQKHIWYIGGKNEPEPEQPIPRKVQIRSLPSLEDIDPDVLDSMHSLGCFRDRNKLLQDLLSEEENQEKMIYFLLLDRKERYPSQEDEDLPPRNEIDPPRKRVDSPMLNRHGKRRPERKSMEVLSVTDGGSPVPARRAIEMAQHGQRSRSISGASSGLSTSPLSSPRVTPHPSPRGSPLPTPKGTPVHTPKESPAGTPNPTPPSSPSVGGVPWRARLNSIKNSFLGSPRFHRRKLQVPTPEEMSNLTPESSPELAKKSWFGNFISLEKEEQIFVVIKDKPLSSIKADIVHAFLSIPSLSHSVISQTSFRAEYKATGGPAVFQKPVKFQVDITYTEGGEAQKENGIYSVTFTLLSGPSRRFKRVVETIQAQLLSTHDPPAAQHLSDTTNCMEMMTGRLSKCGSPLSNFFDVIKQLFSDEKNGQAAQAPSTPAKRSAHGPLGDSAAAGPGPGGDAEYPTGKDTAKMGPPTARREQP
The note with it: 100 μM compound, 50 μM ATP; read-out: Kinase activity, % of activity in the absence of inhibitor. The gist of the method:
(§1)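 CoA, dpCoA and ADP were each tested in vitro, in duplicate, at 100 μM final concentration as part of a 117-kinase panel. Recombinant kinases were used with model substrates and optimal ATP concentrations.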

The target in test [2] is T2, TTK (Homo sapiens, UniProt P33981).
T2 sequence (P33981 1-857): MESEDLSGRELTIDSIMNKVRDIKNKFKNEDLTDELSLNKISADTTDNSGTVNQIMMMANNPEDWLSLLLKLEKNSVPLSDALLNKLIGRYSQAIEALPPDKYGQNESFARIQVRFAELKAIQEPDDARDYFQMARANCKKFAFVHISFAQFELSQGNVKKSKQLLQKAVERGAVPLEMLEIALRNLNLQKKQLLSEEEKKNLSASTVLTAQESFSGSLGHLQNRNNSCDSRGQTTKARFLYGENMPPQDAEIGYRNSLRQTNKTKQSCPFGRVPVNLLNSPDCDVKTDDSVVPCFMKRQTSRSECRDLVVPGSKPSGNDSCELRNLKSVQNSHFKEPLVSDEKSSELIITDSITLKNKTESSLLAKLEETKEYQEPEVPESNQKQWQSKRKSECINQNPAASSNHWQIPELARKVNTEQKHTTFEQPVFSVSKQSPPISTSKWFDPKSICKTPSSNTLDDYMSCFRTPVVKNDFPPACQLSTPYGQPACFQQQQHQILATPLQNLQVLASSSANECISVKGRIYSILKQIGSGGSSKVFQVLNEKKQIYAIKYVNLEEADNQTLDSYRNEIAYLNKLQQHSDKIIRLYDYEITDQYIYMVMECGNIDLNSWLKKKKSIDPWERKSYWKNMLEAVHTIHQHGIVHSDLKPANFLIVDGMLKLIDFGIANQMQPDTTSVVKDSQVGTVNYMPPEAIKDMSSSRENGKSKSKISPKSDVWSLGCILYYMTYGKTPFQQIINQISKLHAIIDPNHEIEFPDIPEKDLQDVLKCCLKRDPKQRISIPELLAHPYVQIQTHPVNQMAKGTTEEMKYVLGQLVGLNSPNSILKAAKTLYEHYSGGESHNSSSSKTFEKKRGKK
The conditions noted are these: 100 μM compound, 20 μM ATP; read-out: Kinase activity, % of activity in the absence of inhibitor. A digest of the protocol: as §1

Test [3] addresses YES1 (Homo sapiens, UniProt P07947). The conditions noted are these: for activity at 100 µM: 100 μM compound, 20 μM ATP, read-out: Kinase activity, % of activity in the absence of inhibitor. A digest of the protocol: as §1
For test [4], the target named is T3, NUAK1 (Homo sapiens, UniProt O60285).
T3 sequence (O60285 1-661): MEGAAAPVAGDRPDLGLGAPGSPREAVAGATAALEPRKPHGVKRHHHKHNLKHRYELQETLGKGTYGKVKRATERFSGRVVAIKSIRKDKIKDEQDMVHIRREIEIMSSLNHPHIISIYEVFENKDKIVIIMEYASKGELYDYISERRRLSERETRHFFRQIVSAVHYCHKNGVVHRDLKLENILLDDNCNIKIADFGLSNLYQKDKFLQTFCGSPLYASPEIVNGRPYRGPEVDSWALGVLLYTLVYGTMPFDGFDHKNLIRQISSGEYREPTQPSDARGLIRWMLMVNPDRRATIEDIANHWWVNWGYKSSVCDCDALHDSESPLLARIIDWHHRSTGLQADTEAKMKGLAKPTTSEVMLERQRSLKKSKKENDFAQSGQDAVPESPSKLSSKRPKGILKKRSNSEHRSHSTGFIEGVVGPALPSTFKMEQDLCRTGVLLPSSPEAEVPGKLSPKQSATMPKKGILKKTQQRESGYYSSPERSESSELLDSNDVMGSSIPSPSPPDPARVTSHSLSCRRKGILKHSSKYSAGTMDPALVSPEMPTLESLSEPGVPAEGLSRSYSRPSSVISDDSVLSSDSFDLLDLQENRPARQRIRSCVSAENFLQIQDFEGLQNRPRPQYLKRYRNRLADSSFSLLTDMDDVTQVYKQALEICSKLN
The conditions noted are these: 100 μM compound, 20 μM ATP; read-out: Kinase activity, % of activity in the absence of inhibitor. The gist of the method:
as §1

SMILES strings stand for the structures.

Sequence of YES1 (P07947 whole entry): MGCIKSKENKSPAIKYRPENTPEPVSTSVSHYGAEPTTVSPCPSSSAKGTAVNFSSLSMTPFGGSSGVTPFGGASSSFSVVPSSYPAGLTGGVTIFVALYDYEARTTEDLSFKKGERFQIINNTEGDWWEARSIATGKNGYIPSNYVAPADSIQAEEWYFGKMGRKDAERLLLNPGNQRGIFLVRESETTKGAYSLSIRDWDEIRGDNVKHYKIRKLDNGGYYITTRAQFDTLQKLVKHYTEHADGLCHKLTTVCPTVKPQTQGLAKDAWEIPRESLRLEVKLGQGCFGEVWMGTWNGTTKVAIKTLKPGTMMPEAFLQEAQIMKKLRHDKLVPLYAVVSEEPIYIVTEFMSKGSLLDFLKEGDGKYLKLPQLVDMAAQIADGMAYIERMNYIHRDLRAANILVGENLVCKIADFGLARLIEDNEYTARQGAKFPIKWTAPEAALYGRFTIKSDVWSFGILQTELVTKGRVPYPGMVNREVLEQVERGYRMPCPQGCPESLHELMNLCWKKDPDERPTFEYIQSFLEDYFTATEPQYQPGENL

For the compound `CC(C)(COP(=O)(O)OP(=O)(O)OCC1OC(n2cnc3c(N)ncnc32)C(O)C1O)C(O)C(=O)NCCC(=O)NCCS` (centres unmarked) [dpCoA, dephospho-CoA], the activity at 100 µM in test [1] was found to be 88.8%; in test [2], 75.8%; in test [3] it was 11.5%; in test [4], 68.3%.
Consider `CC(C)(COP(=O)(O)OP(=O)(O)OC[C@H]1O[C@@H](n2cnc3c(N)ncnc32)[C@H](O)[C@@H]1OP(=O)(O)O)[C@@H](O)C(=O)NCCC(=O)NCCS` [CoA, Coenzyme A], for which the activity at 100 µM in test [1] worked out at 115%; in test [2], 101%; in test [3] it was 49%; in test [4], 98.3%. Also, the inhibition at 100 µM in test [3] (100 μM CoA, kinase profiling screen, read-out: YES inhibition) is ≤ 50%. Further, the “YES inhibition (in words)” value in test [3] (kinase profiling, 100 μM) is “modestly inhibited”.
`Nc1ncnc2c1ncn2C1OC(COP(=O)(O)OP(=O)(O)O)C(O)C1O` (centres unmarked) [ADP]: the activity at 100 µM in test [1] stood at 52.4%; in test [2], 54.7%; in test [3], 18.6%; in test [4], 32.4%.
